Results reported in patent US11591351B2, “Benzyl compound” (priority 2015, dated 2023).
Converted amounts (≈) assume the structure as drawn.

Details: 25° C.; for solubility enhanced versus unprotected H-Gly-Gly-Gly-OH: CPME, relative to H-Gly-Gly-Gly-OH

| SMILES | solubility in cyclopentyl methyl ether (CPME) | solubility enhanced versus unprotected H-Gly-Gly-Gly-OH |
| --- | --- | --- |
| CC(C)[Si](OCCCCCCCCCCCOc1ccc(COC(=O)CNC(=O)CNC(=O)CN)c(OCCCCCCCCCCCO[Si](C(C)C)(C(C)C)C(C)C)c1)(C(C)C)C(C)C [H-Gly-Gly-Gly-O-TIPS2] | 181 mM (≈ 175 mg/mL) | about 5,000 fold |
| CC(C)[Si](OCC(CO[Si](C(C)C)(C(C)C)C(C)C)(CO[Si](C(C)C)(C(C)C)C(C)C)NC(=O)CCCCCCCCCCOc1ccc(COC(=O)CNC(=O)CNC(=O)CN)c(OCCCCCCCCCCC(=O)NC(CO[Si](C(C)C)(C(C)C)C(C)C)(CO[Si](C(C)C)(C(C)C)C(C)C)CO[Si](C(C)C)(C(C)C)C(C)C)c1)(C(C)C)C(C)C [H-Gly-Gly-Gly-O-TIPS6] | 286 mM (≈ 522 mg/mL) | about 9,000 fold |
